{
  "source": "patent US20020119178A1",
  "about": "(priority 2001, published 2002)",
  "key": {"[1]": {"system": "human saphenous vein smooth muscle cells (HSV-SMC)", "assay": "HSV-SMC proliferation assay (MTS), drugs at known concentrations", "format": "cell-based", "settings": "read-out: IC50 (concentration at which the proliferation is reduced by 50%)", "method": "(§1) A proliferation assay was performed using human saphenous vein smooth muscle cells (HSV-SMC) with cells at passage 3-5. HSV-SMC were established in 96-well plates for 24 hours then serum starved for 48 hours. […] A positive control (100%) was set for cells exposed to DMEM supplemented with 20% FBS only while a negative control (0%) was set for cells exposed to only unsupplemented DMEM. Cells were stimulated for 72 hours with the anti-proliferative drug containing culture media. A solution of [3-(4,5-dimethylthiazol-2-yl)-5-(3-carboxymethoxyphenyl)-2-(4-sulfophenyl)-2H-tetrazolium](MTS, a cell proliferation marker) is then added onto the cells for 3 hours. Absorbance at 490 nm is recorded using a 96-well plate reader."}, "[2]": {"settings": "for residual tritiated actinomycin D remaining on the discs following 8 days of elution: physiological medium", "method": "In FIG. 1, the electrochemical cell 10 is a standard three-electrode setup. A saturated Calomel electrode (SCE) was used as the reference electrode 12 and the counter electrode 14 was a circular platinum foil (3 cm^2). A 316L stainless steel disk (0.8 cm^2 area) connected to a platinum wire 16 was used as the working electrode 18. The cell was filled with an aqueous electrodeposition solution composed of 5 mM sulfuric acid and 20 mM of an aryldiazonium-containing molecule as described in FIG. 2 for the cyclic voltammetry electrochemical process. The electrodeposition of the aryldiazonium onto the stainless steel device was applied using 2 consecutive cyclic scans ranging from −0.5 V to −1.75 V relatively to the SCE reference electrode. The current-voltage response was followed on a XY recorder. Following electrodeposition, the device was consecutively washed with water and acetonitrile to remove impurities.\nFIG. 5 illustrates the necessity of the presence of a molecule containing a diazonium moiety to retain tritiated actinomycin D deposited on the surface of stainless steel 316L discs. In this experiment, stainless steel 316L discs, which are made out of the same material as the stainless steel stents and other endovascular devices, are either functionalized with 4-bromobenzenediazonium or left bare. The discs are then exposed to a solution containing 30 μg of tritiated actinomycin D whereas the solvent is acetonitrile or ethanol. Following dipping, the discs are left to dry at room temperature until the solvent evaporates. The discs are first washed in deionized water for 5 minutes followed by a 5-minute wash in a physiologic solution. The discs are then counted in a scintillation counter.\nFIG. 6 illustrates the loading and retention capacity of tritiated actinomycin D immobilized as described previously onto stainless steel 316L discs, with the exception however that water was also used as solvent for immobilizing tritiated actinomycin D. Following immobilization, the discs were first washed for 5 minutes in deionized water followed by a 5-minute wash in a physiologic solution. The loading of tritiated actinomycin D onto the stainless steel discs varied according of the type of solvent used: acetonitrile>ethanol>water.\nFIG. 7 illustrates the effect of varying concentrations of the 4-bromobenzenediazonium solution on the loading and retention of 30 μg of tritiated actinomycin D following 8 days of elution in a physiological medium. Stainless steel 316L discs were exposed to varying concentrations of 4-bromobenzenediazonium solution before electrodeposition with the set-up as described in FIG. 1. Actinomycin D loading in the ethanol solution increased 1.6 fold, from 4324±329 for […] to 7146±80 for 20 mM. […]"}, "[3]": {"system": "human saphenous vein smooth muscle cells (HSV-SMC)", "format": "cell-based", "settings": "bromobenzenediazonium coated discs only, no drug", "method": "as §1"}, "[4]": {"settings": "Homo sapiens, HSV-SMC passage 3-5, 20% FBS, 72 hours, MTS absorbance 490 nm"}},
  "note": "pIC50: −log10 of the molar value. Read-outs that look alike come from different tables or passages of the source. Starred links: 1 amine or outer side, 2 acyl side, 3 side chain; linkers in the order of their positions; H or OH if unused. Positions of bridges follow the written chain, without caps; N, C: chain ends. Non-standard residues stand in square brackets, D forms with d. Residues, ends and D or L forms follow the SMILES beside them. Chains are numbered I, II in the order given. Actinocin(9to1) = Cc1c2oc3c(C)ccc(C(=O)[*:1])c3nc-2c(C(=O)[*:2])c(N)c1=O; NMeV = CN[C@H](C(=O)O)C(C)C; Sar = CNCC(=O)O",
  "data": [
    {"smiles": "Cc1c2oc3c(C)ccc(C(=O)N[C@@H]4C(=O)N[C@H](C(C)C)C(=O)N5CCC[C@H]5C(=O)N(C)CC(=O)N(C)[C@@H](C(C)C)C(=O)O[C@@H]4C)c3nc-2c(C(=O)N[C@@H]2C(=O)N[C@H](C(C)C)C(=O)N3CCC[C@H]3C(=O)N(C)CC(=O)N(C)[C@@H](C(C)C)C(=O)O[C@@H]2C)c(N)c1=O", "note": "[actinomycin D] (I: T[dV]P[Sar][NMeV] / II: T[dV]P[Sar][NMeV]; ester I:1-I:C, II:1-II:C; linker I:N-II:N via Actinocin(9to1))", "values": [
      {"measurement": "pIC50", "setting": "[1]; HSV-SMC passage 3-5, 20% FBS, 72 hours, MTS absorbance 490 nm", "value": 10.09},
      {"measurement": "residual tritiated actinomycin D remaining on the discs following 8 days of elution", "setting": "[2]; 0.02 mM 4-bromobenzenediazonium", "value": "348±52"},
      {"measurement": "residual tritiated actinomycin D remaining on the discs following 8 days of elution", "setting": "[2]; 20 mM 4-bromobenzenediazonium", "value": "2539±43"},
      {"measurement": "drug remaining on the discs after 10 days of elution", "setting": "[2]; 4-bromobenzenediazonium functionalized discs loaded with acetonitrile, physiological solution", "value": "~20", "unit": "%"},
      {"measurement": "drug remaining on discs following 10 days of elution", "setting": "[2]; functionalized discs loaded with acetonitrile or ethanol", "value": "substantial amounts"}
    ]},
    {"smiles": "COc1cccc2c1C(=O)c1c(O)c3c(c(O)c1C2=O)C[C@@](O)(C(=O)CO)C[C@@H]3O[C@H]1C[C@H](N)[C@H](O)[C@H](C)O1", "note": "[doxorubicin]", "values": [
      {"measurement": "pIC50", "setting": "[1]; [4]", "value": 8.10}
    ]},
    {"smiles": "F[B-](F)(F)F.N#[N+]c1ccc(Br)cc1", "note": "[molecule 5, 4-bromobenzenediazonium tetrafluoroborate]", "values": [
      {"measurement": "effect of elution on cell proliferation", "setting": "[3]", "value": "does not inhibit cell proliferation"}
    ]},
    {"smiles": "CC(=O)O[C@H]1C(=O)[C@@]2(C)[C@H]([C@H](OC(=O)c3ccccc3)[C@]3(O)C[C@H](OC(=O)[C@H](O)[C@@H](NC(=O)c4ccccc4)c4ccccc4)C(C)=C1C3(C)C)[C@]1(OC(C)=O)CO[C@@H]1C[C@@H]2O", "note": "[paclitaxel]", "values": [
      {"measurement": "pIC50", "setting": "[1]; [4]", "value": 7.32}
    ]},
    {"smiles": "CO[C@H]1C[C@@H]2CC[C@@H](C)[C@@](O)(O2)C(=O)C(=O)N2CCCC[C@H]2C(=O)O[C@H]([C@H](C)C[C@@H]2CC[C@@H](O)[C@H](OC)C2)CC(=O)[C@H](C)/C=C(\\C)[C@@H](O)[C@@H](OC)C(=O)[C@H](C)C[C@H](C)/C=C/C=C/C=C/1C", "note": "[rapamycin]", "values": [
      {"measurement": "pIC50", "setting": "[1]; Homo sapiens, 72 h", "value": 9.92}
    ]},
    {"smiles": "CC[C@]1(O)C[C@@H]2CN(CCc3c([nH]c4ccccc34)[C@@](C(=O)OC)(c3cc4c(cc3OC)N(C)[C@H]3[C@@](O)(C(=O)OC)[C@H](OC(C)=O)[C@]5(CC)C=CCN6CC[C@]43[C@@H]65)C2)C1", "note": "[vinblastine]", "values": [
      {"measurement": "pIC50", "setting": "[1]; [4]", "value": 9.13}
    ]},
    {"smiles": "CC[C@]1(O)C[C@H]2CN(CCc3c([nH]c4ccccc34)[C@@](C(=O)OC)(c3cc4c(cc3OC)N(C=O)[C@H]3[C@@](O)(C(=O)OC)[C@H](OC(C)=O)[C@]5(CC)C=CCN6CC[C@]43[C@@H]65)C2)C1", "note": "[vincristine]", "values": [
      {"measurement": "pIC50", "setting": "[1]; Homo sapiens, 72 h", "value": 9.09}
    ]}
  ]
}
